Test results published in ChEMBL document CHEMBL3244098, “Angiotensin II analogues. 13. Role of the hydroxyl group of position 4 tyrosine in pressor activity” (1979).
Numbered stars: 1 amine (or outer) side, 2 acyl side, 3 side chain; on linkers, the order of the positions; unused ones are H or OH. Square brackets hold non-standard residues; d marks the D form. Peptide text beside a SMILES is read from it. Phe(4-NO2) = N[C@@H](Cc1ccc([N+](=O)[O-])cc1)C(=O)O; Tyr(3,5-I2) = N[C@@H](Cc1cc(I)c(O)c(I)c1)C(=O)O; X3 = N#[N+]c1ccc(C[C@@H](N[*:1])C(=O)[*:2])cc1; X2 = Nc1c(I)cc(C[C@@H](N[*:1])C(=O)[*:2])cc1I; X4 = Cc1cc(C[C@@H](N[*:1])C(=O)[*:2])cc(C)c1O; X1 = Cc1cc(C[C@H](N[*:1])C(=O)[*:2])cc(C)c1O; Tyr(3-I) = N[C@@H](Cc1ccc(O)c(I)c1)C(=O)O; Phe(4-NH2) = Nc1ccc(C[C@H](N)C(=O)O)cc1; Sar = CNCC(=O)O

Species on record: Rattus norvegicus
Assay: Pressor activity in nephrectomized, pentolinium treated rat relative to [Asn1,Val5]AII
Type: functional

| Compound | Activity [%] |
| --- | --- |
| CC[C@H](C)[C@H](NC(=O)[C@H](Cc1ccc(N)cc1)NC(=O)[C@@H](NC(=O)[C@H](CCCNC(=N)N)NC(=O)[C@@H](N)CC(N)=O)C(C)C)C(=O)N[C@@H](Cc1cnc[nH]1)C(=O)N1CCC[C@H]1C(=O)N[C@@H](Cc1ccccc1)C(=O)O (H-NRV[Phe(4-NH2)]IHPF-OH) | 24 |
| CC[C@H](C)[C@H](NC(=O)[C@H](Cc1ccccc1)NC(=O)[C@@H](NC(=O)[C@H](CCCNC(=N)N)NC(=O)[C@@H](N)CC(=O)O)C(C)C)C(=O)N[C@@H](Cc1cnc[nH]1)C(=O)N1CCC[C@H]1C(=O)N[C@@H](Cc1ccccc1)C(=O)O (H-DRVFIHPF-OH) | 10 |
| CC[C@H](C)[C@H](NC(=O)[C@@H](Cc1cc(C)c(O)c(C)c1)NC(=O)[C@@H](NC(=O)[C@H](CCCNC(=N)N)NC(=O)[C@@H](N)CC(N)=O)C(C)C)C(=O)N[C@@H](Cc1cnc[nH]1)C(=O)N1CCC[C@H]1C(=O)N[C@@H](Cc1ccccc1)C(=O)O (H-NRV[X4]IHPF-OH) | 1.4 |
| CC(C)[C@H](NC(=O)[C@H](CCCNC(=N)N)NC(=O)[C@@H](N)CC(N)=O)C(=O)N[C@@H](Cc1ccc(O)c(I)c1)C(=O)N[C@H](C(=O)N[C@@H](Cc1cnc[nH]1)C(=O)N1CCC[C@H]1C(=O)N[C@@H](Cc1ccccc1)C(=O)O)C(C)C (H-NRV[Tyr(3-I)]VHPF-OH) | 33 |
| CC[C@H](C)[C@H](NC(=O)[C@H](Cc1cc(C)c(O)c(C)c1)NC(=O)[C@@H](NC(=O)[C@H](CCCNC(=N)N)NC(=O)[C@@H](N)CC(N)=O)C(C)C)C(=O)N[C@@H](Cc1cnc[nH]1)C(=O)N1CCC[C@H]1C(=O)N[C@@H](Cc1ccccc1)C(=O)O (H-NRV[X1]IHPF-OH) | 2.2 |
| CC(C)[C@H](NC(=O)[C@H](CCCNC(=N)N)NC(=O)[C@@H](N)CC(N)=O)C(=O)N[C@@H](Cc1cc(I)c(O)c(I)c1)C(=O)N[C@H](C(=O)N[C@@H](Cc1cnc[nH]1)C(=O)N1CCC[C@H]1C(=O)N[C@@H](Cc1ccccc1)C(=O)O)C(C)C (H-NRV[Tyr(3,5-I2)]VHPF-OH) | 13 |
| CC[C@H](C)[C@H](NC(=O)[C@H](Cc1ccc([N+](=O)[O-])cc1)NC(=O)[C@@H](NC(=O)[C@H](CCCNC(=N)N)NC(=O)[C@@H](N)CC(N)=O)C(C)C)C(=O)N[C@@H](Cc1cnc[nH]1)C(=O)N1CCC[C@H]1C(=O)N[C@@H](Cc1ccccc1)C(=O)O (H-NRV[Phe(4-NO2)]IHPF-OH) | 0.1 |

The compounds below were run against T1, Type-1 angiotensin II receptor (Oryctolagus cuniculus) (UniProt P34976) (assay: Binding affinity to angiotensin 2 receptor in rabbit aorta).
T1 sequence (whole entry): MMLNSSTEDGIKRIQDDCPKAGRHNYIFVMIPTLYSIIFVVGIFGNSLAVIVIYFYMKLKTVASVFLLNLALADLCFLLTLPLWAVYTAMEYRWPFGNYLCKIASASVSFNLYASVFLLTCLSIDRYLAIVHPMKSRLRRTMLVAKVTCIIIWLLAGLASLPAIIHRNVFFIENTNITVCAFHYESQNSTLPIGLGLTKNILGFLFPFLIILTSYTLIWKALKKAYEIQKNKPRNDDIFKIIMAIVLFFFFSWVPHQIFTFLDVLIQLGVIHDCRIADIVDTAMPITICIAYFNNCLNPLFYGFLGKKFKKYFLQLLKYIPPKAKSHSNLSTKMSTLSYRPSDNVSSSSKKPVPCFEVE

| Activity [%] | Compound |
| --- | --- |
| 0.26 | CNCC(=O)N[C@@H](CCCNC(=N)N)C(=O)N[C@H](C(=O)N[C@H](Cc1ccc(N=[N+]=[N-])cc1)C(=O)N[C@H](C(=O)N[C@@H](Cc1cnc[nH]1)C(=O)N1CCC[C@H]1C(=O)N[C@@H](Cc1ccccc1)C(=O)O)C(C)C)C(C)C |
| 15 | CNCC(=O)N[C@@H](CCCNC(=N)N)C(=O)N[C@H](C(=O)N[C@H](Cc1ccc(N)cc1)C(=O)N[C@H](C(=O)N[C@@H](Cc1cnc[nH]1)C(=O)N1CCC[C@H]1C(=O)N[C@@H](Cc1ccccc1)C(=O)O)C(C)C)C(C)C |
| 0.66 | CNCC(=O)N[C@@H](CCCNC(=N)N)C(=O)N[C@H](C(=O)N[C@H](Cc1ccc([N+]#N)cc1)C(=O)N[C@H](C(=O)N[C@@H](Cc1cnc[nH]1)C(=O)N1CCC[C@H]1C(=O)N[C@@H](Cc1ccccc1)C(=O)O)C(C)C)C(C)C (H-[Sar]RV[X3]VHPF-OH) |
| 2.7 | CNCC(=O)N[C@@H](CCCNC(=N)N)C(=O)N[C@H](C(=O)N[C@H](Cc1cc(I)c(N)c(I)c1)C(=O)N[C@H](C(=O)N[C@@H](Cc1cnc[nH]1)C(=O)N1CCC[C@H]1C(=O)N[C@@H](Cc1ccccc1)C(=O)O)C(C)C)C(C)C (H-[Sar]RV[X2]VHPF-OH) |
